Experimental data published in patent US20260262643A1, “HERBICIDAL BENZOXAZINES” (FMC CORPORATION, priority 2022, published 2026).

Experiments:
ragweed [1] = assay: Test C postemergence; type: in vivo, Ambrosia artemisiifolia; conditions: 10 days
In short: (§1)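 Visual injury ratings on a 0–100 scale (100 = complete control) were made against untreated controls 10 days after treatment in the greenhouse. Compounds, formulated with surfactant in non-phytotoxic solvent, were sprayed on soil preemergence or onto one- to two-leaf plants 2–10 cm tall postemergence.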

wheat [2] = assay: Test C preemergence; type: in vivo, Triticum aestivum; conditions: for Plant response rating, Wheat: Preemergence; for Wheat plant response rating: preemergence
In short: as §1

ryegrass, Italian [3] = assay: Test C preemergence; type: in vivo, Lolium multiflorum; conditions: for Plant response rating, Ryegrass, Italian: Preemergence; for Ryegrass, Italian plant response rating: preemergence
In short: as §1

ducksalad = assay: Test D flooded paddy test; type: in vivo, Heteranthera limosa; conditions: 250 g ai/ha, applied to paddy water, visual rating after 13 to 14 days, scale 0 to 100 (0 no effect, 100 complete control)
In short: (§2)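 At the 2-leaf stage, floodwater 3 cm deep received the test compound; that depth persisted throughout. Plants scored visually 13 to 14 days on, 0 (no effect) to 100 (complete control), dash indicating no result.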

pigweed, palmer [4] = assay: Test C preemergence; type: in vivo, Amaranthus palmeri; conditions: for Plant response rating, Pigweed, Palmer: Preemergence; for Pigweed, Palmer plant response rating: preemergence
In short: as §1

oat, wild [5] = assay: Test C preemergence; type: in vivo, Avena fatua; conditions: for Plant response rating, Oat, Wild: Preemergence; for Oat, Wild plant response rating: preemergence
In short: as §1

green foxtail [6] = assay: Test C preemergence; type: in vivo, Setaria viridis; conditions: for Plant response rating, Foxtail, Green: Preemergence; for Foxtail, Green plant response rating: preemergence
In short: as §1

barnyardgrass [7] = assay: Test C preemergence; type: in vivo, Echinochloa crusgalli; conditions: for Plant response rating, Barnyardgrass: Preemergence; for Barnyardgrass plant response rating: preemergence
In short: as §1

blackgrass [8] = assay: Test C preemergence; type: in vivo, Alopecurus myosuroides; conditions: for Plant response rating, Blackgrass: Preemergence; for Blackgrass plant response rating: preemergence
In short: as §1

galium = assay: Test C postemergence; type: in vivo, Galium aparine; conditions: 10 days
In short: as §1

barnyardgrass [9] = assay: Test D flooded paddy test; type: in vivo, Echinochloa crus-galli; conditions: 250 g ai/ha, applied to paddy water, visual rating after 13 to 14 days, scale 0 to 100 (0 no effect, 100 complete control)
In short: as §2

corn [10] = assay: Test C postemergence; type: in vivo, Zea mays; conditions: 10 days
In short: as §1

pigweed, palmer [11] = assay: Test C postemergence; type: in vivo, Amaranthus palmeri; conditions: 10 days
In short: as §1

corn [12] = assay: Test C preemergence; type: in vivo, Zea mays; conditions: for Plant response rating, Corn: Preemergence; for Corn plant response rating: preemergence
In short: as §1

soybean [13] = assay: Test C preemergence; type: in vivo, Glycine max; conditions: for Plant response rating, Soybean: Preemergence; for Soybean plant response rating: preemergence
In short: as §1

ryegrass, Italian [14] = assay: Test C postemergence; type: in vivo, Lolium multiflorum; conditions: 10 days
In short: as §1

green foxtail [15] = assay: Test C postemergence; type: in vivo, Setaria viridis; conditions: 10 days
In short: as §1

ragweed [16] = assay: Test C preemergence; type: in vivo, Ambrosia artemisiifolia; conditions: for Plant response rating, Ragweed: Preemergence; for Ragweed plant response rating: preemergence
In short: as §1

horseweed = assay: Test C postemergence; type: in vivo, Erigeron canadensis; conditions: 10 days
In short: as §1

sedge, umbrella = assay: Test D flooded paddy test; type: in vivo, Cyperus difformis; conditions: 250 g ai/ha, applied to paddy water, visual rating after 13 to 14 days, scale 0 to 100 (0 no effect, 100 complete control)
In short: as §2

barnyardgrass [17] = assay: Test C postemergence; type: in vivo, Echinochloa crusgalli; conditions: 10 days
In short: as §1

soybean [18] = assay: Test C postemergence; type: in vivo, Glycine max; conditions: 10 days
In short: as §1

blackgrass [19] = assay: Test C postemergence; type: in vivo, Alopecurus myosuroides; conditions: 10 days
In short: as §1

kochia [20] = assay: Test C preemergence; type: in vivo, Bassia scoparia; conditions: for Plant response rating, Kochia: Preemergence; for Kochia plant response rating: preemergence
In short: as §1

oat, wild [21] = assay: Test C postemergence; type: in vivo, Avena fatua; conditions: 10 days
In short: as §1

rice = assay: Test D flooded paddy test; type: in vivo, Oryza sativa; conditions: 250 g ai/ha, applied to paddy water, visual rating after 13 to 14 days, scale 0 to 100 (0 no effect, 100 complete control)
In short: as §2

wheat [22] = assay: Test C postemergence; type: in vivo, Triticum aestivum; conditions: 10 days
In short: as §1

kochia [23] = assay: Test C postemergence; type: in vivo, Bassia scoparia; conditions: 10 days
In short: as §1

[24] = 125 g ai/ha, postemergence, 0 to 100 scale, 0 no effect, 100 complete control
[25] = Postemergence, 500 g ai/ha, visual 0 to 100 scale (0 no effect, 100 complete control)
[26] = 500 g ai/ha, visual rating after 10 days, 0 to 100 scale (0 no effect, 100 complete control)
[27] = Test C, 125 g ai/ha, 0 to 100 scale (0 no effect, 100 complete control)
[28] = 500 g ai/ha, postemergence, 0 to 100 scale (0 no effect, 100 complete control)
[29] = Postemergence, 125 g ai/ha, 0 to 100 scale (0 no effect, 100 complete control)
[30] = 500 g ai/ha, 0 to 100 scale (0 no effect, 100 complete control)
[31] = 125 g ai/ha, 0 to 100 scale, 0 no effect, 100 complete control

In the case of `Cc1ccc(-n2cnc(C(C)(F)F)n2)cc1C(=O)N1C[C@H](C)Oc2c(Cl)cccc21` [Compound 248], the “Plant response rating, Ragweed” value (ragweed [1]; [24]) was 90, the “Plant response rating, Ragweed” value (ragweed [1]; [25]) was 90 and the “Plant response rating, Wheat” value (wheat [2]; [26]) was 90. For the same compound, the “Wheat plant response rating” value (wheat [2]; [27]) was 40, the “Plant response rating, Ryegrass, Italian” value (ryegrass, Italian [3]; [26]) was 100 and the “Ryegrass, Italian plant response rating” value (ryegrass, Italian [3]; [27]) was 90. The “Plant response rating, Ducksalad (Flood)” value (ducksalad) was 0, the “Plant response rating, Pigweed, Palmer” value (pigweed, palmer [4]; [26]) was 100 and the “Pigweed, Palmer plant response rating” value (pigweed, palmer [4]; [27]) was 100. For the same compound, the “Plant response rating, Oat, Wild” value (oat, wild [5]; [26]) was 90, the “Oat, Wild plant response rating” value (oat, wild [5]; [27]) was 40 and the “Plant response rating, Foxtail, Green” value (green foxtail [6]; [26]) was 100. For the same compound, the “Foxtail, Green plant response rating” value (green foxtail [6]; [27]) was 100, the “Plant response rating, Barnyardgrass” value (barnyardgrass [7]; [26]) was 100 and the “Barnyardgrass plant response rating” value (barnyardgrass [7]; [27]) was 100. The “Plant response rating, Blackgrass” value (blackgrass [8]; [26]) was 70, the “Blackgrass plant response rating” value (blackgrass [8]; [27]) was 30 and the “Plant response rating, Galium” value (galium; [24]) was 100. The “Plant response rating, Barnyardgrass (Flood)” value (barnyardgrass [9]) was 0, the “Plant response rating, Corn” value (corn [10]; [24]) was 60 and the “Plant response rating, Corn” value (corn [10]; [25]) was 70. The “Plant response rating, Pigweed, Palmer” value (pigweed, palmer [11]; [24]) was 90, the “Plant response rating, Pigweed, Palmer” value (pigweed, palmer [11]; [25]) was 100 and the “Plant response rating, Corn” value (corn [12]; [26]) was 50. For the same compound, the “Corn plant response rating” value (corn [12]; [27]) was 20, the “Plant response rating, Soybean” value (soybean [13]; [26]) was 100 and the “Soybean plant response rating” value (soybean [13]; [27]) was 60. The “Plant response rating, Ryegrass, Italian” value (ryegrass, Italian [14]; [24]) was 90, the “Plant response rating, Ryegrass, Italian” value (ryegrass, Italian [14]; [25]) was 100 and the “Plant response rating, Foxtail, Green” value (green foxtail [15]; [24]) was 90. The “Plant response rating, Foxtail, Green” value (green foxtail [15]; [25]) was 90, the “Plant response rating, Ragweed” value (ragweed [16]; [26]) was 90 and the “Ragweed plant response rating” value (ragweed [16]; [27]) was 80. The “Plant response rating, Horseweed” value (horseweed; [24]) was 10, the “Plant response rating, Horseweed” value (horseweed; [25]) was 40 and the “Plant response rating, Sedge, Umbrella (Flood)” value (sedge, umbrella) was 0. The “Plant response rating, Barnyardgrass” value (barnyardgrass [17]; [24]) was 50, the “Plant response rating, Barnyardgrass” value (barnyardgrass [17]; [25]) was 70 and the “Plant response rating, Soybean” value (soybean [18]; [24]) was 100. For the same compound, the “Plant response rating, Soybean” value (soybean [18]; [25]) was 100, the “Plant response rating, Blackgrass” value (blackgrass [19]; [24]) was 90 and the “Plant response rating, Blackgrass” value (blackgrass [19]; [25]) was 100. For the same compound, the “Plant response rating, Kochia” value (kochia [20]; [26]) was 100, the “Kochia plant response rating” value (kochia [20]; [27]) was 100 and the “Plant response rating, Oat, Wild” value (oat, wild [21]; [24]) was 60. The “Plant response rating, Oat, Wild” value (oat, wild [21]; [25]) was 70, the “Plant response rating, Rice (Flood)” value (rice) was 0 and the “Plant response rating, Wheat” value (wheat [22]; [24]) was 30. For the same compound, the “Plant response rating, Wheat” value (wheat [22]; [25]) was 90, the “Plant response rating, Kochia” value (kochia [23]; [24]) was 90 and the “Plant response rating, Kochia” value (kochia [23]; [25]) was 100.
For `COCc1ncn(-c2ccc(C)c(C(=O)N3C[C@H](C)Oc4c(Cl)cccc43)c2)n1` [Compound 357], the “Plant response rating, Ragweed” value (ragweed [1]; [28]) was 60, the “Plant response rating, Ragweed” value (ragweed [1]; [29]) was 20 and the “Wheat plant response rating” value (wheat [2]; [30]) was 70. The “Plant response rating, Wheat” value (wheat [2]; [31]) was 0, the “Ryegrass, Italian plant response rating” value (ryegrass, Italian [3]; [30]) was 100 and the “Plant response rating, Ryegrass, Italian” value (ryegrass, Italian [3]; [31]) was 100. For the same compound, the “Plant response rating, Ducksalad (Flood)” value (ducksalad) was 45, the “Pigweed, Palmer plant response rating” value (pigweed, palmer [4]; [30]) was 100 and the “Plant response rating, Pigweed, Palmer” value (pigweed, palmer [4]; [31]) was 90. For the same compound, the “Oat, Wild plant response rating” value (oat, wild [5]; [30]) was 90, the “Plant response rating, Oat, Wild” value (oat, wild [5]; [31]) was 60 and the “Foxtail, Green plant response rating” value (green foxtail [6]; [30]) was 100. The “Plant response rating, Foxtail, Green” value (green foxtail [6]; [31]) was 100, the “Barnyardgrass plant response rating” value (barnyardgrass [7]; [30]) was 100 and the “Plant response rating, Barnyardgrass” value (barnyardgrass [7]; [31]) was 80. The “Blackgrass plant response rating” value (blackgrass [8]; [30]) was 100, the “Plant response rating, Blackgrass” value (blackgrass [8]; [31]) was 80 and the “Plant response rating, Galium” value (galium; [28]) was 100. For the same compound, the “Plant response rating, Galium” value (galium; [29]) was 100, the “Plant response rating, Barnyardgrass (Flood)” value (barnyardgrass [9]) was 10 and the “Plant response rating, Corn” value (corn [10]; [28]) was 80. For the same compound, the “Plant response rating, Corn” value (corn [10]; [29]) was 40, the “Plant response rating, Pigweed, Palmer” value (pigweed, palmer [11]; [28]) was 100 and the “Plant response rating, Pigweed, Palmer” value (pigweed, palmer [11]; [29]) was 50. The “Corn plant response rating” value (corn [12]; [30]) was 20, the “Plant response rating, Corn” value (corn [12]; [31]) was 10 and the “Soybean plant response rating” value (soybean [13]; [30]) was 100. For the same compound, the “Plant response rating, Soybean” value (soybean [13]; [31]) was 100, the “Plant response rating, Ryegrass, Italian” value (ryegrass, Italian [14]; [28]) was 100 and the “Plant response rating, Ryegrass, Italian” value (ryegrass, Italian [14]; [29]) was 50. For the same compound, the “Plant response rating, Foxtail, Green” value (green foxtail [15]; [28]) was 90, the “Plant response rating, Foxtail, Green” value (green foxtail [15]; [29]) was 30 and the “Ragweed plant response rating” value (ragweed [16]; [30]) was 60. For the same compound, the “Plant response rating, Ragweed” value (ragweed [16]; [31]) was 10, the “Plant response rating, Horseweed” value (horseweed; [28]) was 80 and the “Plant response rating, Horseweed” value (horseweed; [29]) was 60. The “Plant response rating, Sedge, Umbrella (Flood)” value (sedge, umbrella) was 90, the “Plant response rating, Barnyardgrass” value (barnyardgrass [17]; [28]) was 100 and the “Plant response rating, Barnyardgrass” value (barnyardgrass [17]; [29]) was 50. For the same compound, the “Plant response rating, Soybean” value (soybean [18]; [28]) was 100, the “Plant response rating, Soybean” value (soybean [18]; [29]) was 100 and the “Plant response rating, Blackgrass” value (blackgrass [19]; [28]) was 100. The “Plant response rating, Blackgrass” value (blackgrass [19]; [29]) was 90, the “Kochia plant response rating” value (kochia [20]; [30]) was 90 and the “Plant response rating, Kochia” value (kochia [20]; [31]) was 50. The “Plant response rating, Oat, Wild” value (oat, wild [21]; [28]) was 90, the “Plant response rating, Oat, Wild” value (oat, wild [21]; [29]) was 30 and the “Plant response rating, Rice (Flood)” value (rice) was 0. For the same compound, the “Plant response rating, Wheat” value (wheat [22]; [28]) was 80, the “Plant response rating, Wheat” value (wheat [22]; [29]) was 20 and the “Plant response rating, Kochia” value (kochia [23]; [28]) was 70. For the same compound, the “Plant response rating, Kochia” value (kochia [23]; [29]) was 50.
